Experimental findings from patent US4923882A, “Novel amine derivatives, salts thereof and an anti-ulcer agent containing the same” (Toyama Chemical Co., Ltd., priority 1982, dated 1990) are described below.

Experiment [1] has as its system gastric acid secretion. Briefly: Inhibitory effect on gastric acid secretion, perfused stomach preparation of anesthetized rat (histamine stimulated). Format: in vivo, Wistar strain rats. The note with it: intravenous; for ED100: Rattus norvegicus, cumulative, histamine 30 μg/kg/min, read-out: Dose for complete inhibition; for Duration: time from complete inhibition until pH of perfusate became 4. The method, then:
(i) Perfused stomach preparation of anesthetized rat [according to M. N. Ghosh and H. O. Schild: Brit. J. Pharmacol. 13, 54 (1958)]
Wistar strain rats (male, 200 to 250 g) starved for 18 hours were anesthetized with urethane and then subjected to laparotomy, after which the forestomach region of the stomach of each rat was incised. The whole interior of the stomach was sufficiently washed with physiological saline, and the cut edges were sutured. A silicon tube was inserted into the stomach to a length of about 5 mm from the duodenum side and fixed. Subsequently, the stomach was perfused with physiological saline adjusted to a pH of about 10 with an aqueous sodium hydroxide solution at a constant rate (1 ml/min) through an oral sonde, and the change in pH of the perfusate which had flowed out through the silicone tube was continuously recorded. During the perfusion, histamine (30 μg/kg/min) was continuously injected, as an agent for stimulating gastric acid secretion, through the femoral vein at a rate of 0.3 ml/min. Each drug was intravenously administered when the acid secretion became almost constant (pH 3.3±0.2), and cumulatively administered when the inhibition of acid secretion at each dose reached a plateau.
The number of experiments was three for each dose.

For experiment [2], the system named is gastric acid secretion. Briefly: Inhibitory effect on gastric acid secretion, pylorus ligation method (histamine). Format: in vivo, Wistar strain rats. The settings on record: Rattus norvegicus, oral, histamine 25 mg/kg s.c., read-out: Inhibition percentage (gastric acid secretion). The procedure:
Five to six Wistar strain rats (male, 190 to 230 g) per group were starved for 35 hours, after which each drug was orally administered, and after 2 hours, the pylorus of each rat was ligated under ether anesthesia. […] After 3 hours, each rat was killed, after which the cardiac portion was ligated, and the stomach was removed. After 1 ml of distilled water was injected into the stomach, the gastric juice was collected by centrifugation and its volume was measured. The acidity of the gastric juice was measured by titrating 1 ml of the gastric juice with a 0.1N aqueous sodium hydroxide solution, taking pH 7.0 as the end-point. Physiological saline was administered to a control group.
The inhibition percentage of gastric acid secretion was determined from the following equation: [formula]

`N#CNC(=NCC(O)c1ccccc1)NCCSCc1csc(NC(=N)N)n1` (stereo not drawn) [compound 1, N-cyano-N'-{2-[(2-guanidino-4-thiazolyl)methylthio]ethyl}-N"-(β-hydroxyphenethyl)guanidine]: in the experiment with gastric acid secretion [1], the ED100 was 0.3 mg/kg and the Duration is reported as over 210 min.
Taken in the same sequence, the figures for `NC(N)=Nc1nc(CSCCNC(=C[N+](=O)[O-])NCC(O)c2ccccc2)cs1` (stereo not drawn) [compound 2] were 0.1 mg/kg and over 160 min.
With `CN(C)Cc1ccc(CSCCNC(=C[N+](=O)[O-])NCC(O)c2cccnc2)o1` (stereo not drawn) [compound 8, N-{2-[[5-(dimethylamino)methyl-2-furyl]methylthio]ethyl}-N'-[2-hydroxy-2-(3-pyridyl)ethyl]-2-nitro-1,1-ethenediamine], in the experiment on gastric acid secretion [1], the ED100 worked out at 0.3 mg/kg and the Duration turned out to be 200 min.
For `Cc1cc(CSCCNC(=C[N+](=O)[O-])NCC(O)c2ccc(O)cc2)sc1CN(C)C` (stereo not drawn) [compound 10, N-{2-[[5-(dimethylamino)methyl-4-methyl-2-thienyl]methylthio]ethyl}-N'-[2-hydroxy-2-(4-hydroxyphenyl)ethyl]-2-nitro-1,1-ethenediamine] the same measures were 0.18 mg/kg and 175 min.
Taken in the same sequence, the figures for `O=[N+]([O-])C=C(NCCCOc1cccc(CN2CCCCC2)c1)NCC(O)c1cccnc1` (stereo not drawn) [compound 19, N-[2-hydroxy-2-(3-pyridyl)ethyl]-2-nitro-N'-[3-(3-piperidinomethylphenoxy)propyl]-1,1-ethenediamine] were 0.1 mg/kg and 164 min.
With `O=[N+]([O-])C=C(NCCCOc1cccc(CN2CCCCC2)c1)NCC(O)c1ccc([N+](=O)[O-])cc1` (stereo not drawn) [compound 20, N-[2-hydroxy-2-(4-nitrophenyl)ethyl]-2-nitro-N'-[3-(3-piperidinomethylphenoxy)propyl]-1,1-ethenediamine], the Duration with gastric acid secretion [1] is over 210 min.
As to `CS(=O)(=O)NC(=NCCCOc1cccc(CN2CCCCC2)c1)NCC(O)c1ccccc1` (stereo not drawn) [compound 21, N-(β-hydroxyphenethyl)-N'-methanesulfonyl-N"-[3-(3-piperidinomethylphenoxy)propyl]guanidine], in the experiment on gastric acid secretion [1], the ED100 turned out to be 0.1 mg/kg and the Duration is on record as over 240 min.
Taken in the same sequence, the figures for `CN(C)Cc1ccc(CSCCNC(=C[N+](=O)[O-])NC[C@@H](O)c2ccc(O)cc2)o1` [compound 22, N-{2-[[5-(dimethylamino)methyl-2-furyl]methylthio]ethyl}-N'-[S(+)-2-hydroxy-2-(4-hydroxyphenyl)ethyl]-2-nitro-1,1-ethenediamine] were 0.04 mg/kg and 136 min.
Taken in the same sequence, the figures for `COc1cccc(C(O)CNC(=C[N+](=O)[O-])NCCSCc2ccc(CN(C)C)o2)c1` (stereo not drawn) [compound 23, N-{2-[[5-(dimethylamino)methyl-2-furyl]methylthio]ethyl}-N'-[2-hydroxy-2-(3-methoxyphenyl)ethyl]-2-nitro-1,1-ethenediamine] were 0.15 mg/kg and 242 min.
`CSc1ccc(C(O)CNC(=C[N+](=O)[O-])NCCSCc2ccc(CN(C)C)o2)cc1` (stereo not drawn) [compound 24, N-{2-[[5-(dimethylamino)methyl-2-furyl]methylthio]ethyl}-N'-[2-hydroxy-2-(4-methylthiophenyl)ethyl]-2-nitro-1,1-ethenediamine]: in the experiment on gastric acid secretion [1], the ED100 came to 0.2 mg/kg and the Duration is over 240 min.
For `CN(C)Cc1ccc(CSCCNC(=C[N+](=O)[O-])NCC(O)c2ccc(F)c(F)c2)o1` (stereo not drawn) [compound 25, N-{2-[[5-(dimethylamino)methyl-2-furyl]methylthio]ethyl}-N'-[2-(3,4-difluorophenyl)-2-hydroxyethyl]-2-nitro-1,1-ethenediamine] the same measures were 0.1 mg/kg and over 240 min.
Taken in the same sequence, the figures for `CSc1ccc(C(O)CNC(=C[N+](=O)[O-])NCCCOc2cccc(CN3CCCCC3)c2)cc1` (stereo not drawn) [compound 26, N-[2-hydroxy-2-(4-methylthiophenyl)ethyl]-2-nitro-N'-[3-(3-piperidinomethylphenoxy)propyl]-1,1-ethenediamine] were 0.3 mg/kg and over 240 min.
For `O=[N+]([O-])C=C(NCCCOc1cccc(CN2CCCCC2)c1)NCC(O)c1cccc(C(F)(F)F)c1` (stereo not drawn) [compound 27, N-[2-hydroxy-2-(3-trifluoromethylphenyl)ethyl]-2-nitro-N'-[3-(3-piperidinomethylphenoxy)propyl]-1,1-ethenediamine] the same measures were 0.3 mg/kg and over 210 min.
Take `Cc1cc(CSCCNC(=C[N+](=O)[O-])NCC(O)c2cccc(Cl)c2)sc1CN(C)C` (stereo not drawn) [compound 28, N-[2-(3-chlorophenyl)-2-hydroxyethyl]-N'-{2-[[5-(dimethylamino)methyl-4-methyl-2-thienyl]methylthio]ethyl}-2-nitro-1,1-ethenediamine]: in the experiment on gastric acid secretion [1], the ED100 amounted to 0.1 mg/kg and the Duration was determined as 205 min.
Taken in the same sequence, the figures for `O=[N+]([O-])C=C(NCCCOc1cccc(CN2CCCCC2)c1)NCC(O)c1ccc(F)c(F)c1` (stereo not drawn) [compound 30, N-[2-(3,4-difluorophenyl)-2-hydroxyethyl]-2-nitro-N'-[3-(3-piperidinomethylphenoxy)propyl]1,1-ethenediamine] were 0.15 mg/kg and over 240 min.
Take `CCc1cccc(C(O)CNC(=C[N+](=O)[O-])NCCSCc2cc(C)c(CN(C)C)s2)c1` (stereo not drawn) [compound 31, N-{2-[[5-(dimethylamino)methyl-4-methyl-2-thienyl]methylthio]ethyl}-N'-[2-(3-ethylphenyl)-2-hydroxyethyl]-2-nitro-1,1-ethenediamine]: in the experiment with gastric acid secretion [1], the ED100 worked out at 0.3 mg/kg and the Duration is listed as 226 min.
Regarding `Cc1cc(CSCCNC(=C[N+](=O)[O-])NCC(O)c2c(F)cccc2F)sc1CN(C)C` (stereo not drawn) [compound 34, N-{2-[[5-(dimethylamino)methyl-4-methyl-2-thienyl]methylthio]ethyl}-N'-[2-(2,6-difluorophenyl)-2-hydroxyethyl]-2-nitro-1,1-ethenediamine], the inhibition in vivo at 3 mg/kg with gastric acid secretion [2] worked out at 71%.
`Cc1cc(CSCCNC(=C[N+](=O)[O-])NCC(O)c2ccc(F)cc2F)sc1CN(C)C` (stereo not drawn) [compound 35, N-{2-[[5-(dimethylamino)methyl-4-methyl-2-thienyl]methylthio]ethyl}-N'-[2-(2,4-difluorophenyl)-2-hydroxyethyl]-2-nitro-1,1-ethenediamine]: in the experiment on gastric acid secretion [2], the inhibition in vivo at 1 mg/kg was 47%.
On to `O=[N+]([O-])C=C(NCCCOc1cccc(CN2CCCCC2)c1)NCC(O)c1ccccc1F` (stereo not drawn) [compound 36, N-[2-(2-fluorophenyl)-2-hydroxyethyl]-2-nitro-N'-[3-(3-piperidinomethylphenoxy)propyl]-1,1-ethenediamine], for which the inhibition in vivo at 3 mg/kg with gastric acid secretion [2] was determined as 85%.
For `COc1ccc(C(O)CNC(=C[N+](=O)[O-])NCCSCc2ccc(CN(C)C)o2)cc1` (stereo not drawn) [compound 37, N-{2-[[5-(dimethylamino)methyl-2-furyl]methylthio]ethyl}-N'-[2-hydroxy-2-(4-methoxyphenyl)ethyl]-2-nitro-1,1-ethenediamine], in the experiment with gastric acid secretion [2], the inhibition in vivo at 3 mg/kg stood at 77%.
Take `CN(C)Cc1ccc(CSCCNC(=C[N+](=O)[O-])NCC(O)c2ccc(F)cc2)o1` (stereo not drawn) [compound 38, N-{2-[[5-(dimethylamino)methyl-2-furyl]methylthio]ethyl}-N'-[2-(4-fluorophenyl)-2-hydroxyethyl]-2-nitro-1,1-ethenediamine]: in the experiment with gastric acid secretion [2], the inhibition in vivo at 1 mg/kg came out at 41%.
